From patent publication US20040259806A1 (priority 2001, published 2004) come the findings set out here.

One experiment deals with M. bovis 8. Type of experiment: in vivo, mice.
In a further experiment the test system is spleen cells. As to the kind of experiment: Spleen cell proliferation (Con A, LPS, tuberculin) from treated infected mice. Type of experiment: in vivo. To be noted: after 24 days; Group 3 the isoniazid control group. On the procedure: Spleens from mice were harvested aseptically, homogenized in RPMI-1640 medium (Biolot, Russia) and filtered through two layers of sterile gauze. Erythrocytes were lysed in 0.83% percent ammonium chloride solution after centrifugation of the homogenate. Spleen cells were washed twice with RPMI-1640 with 2 mM L-glutamine and […] gentamycin (Sigma, St. Louis, Mo.), then counted using a Goriaev hemocytometer.
Spleen cells and thymic cells were isolated as described above. In vitro, thymic cells were diluted to 10^7/ml in RPMI-1640 with 2 mM L-glutamine, 80 ìg/ml gentamycin and 4% heat-inactivated fetal calf serum (Sigma, St. Louis, Mo.). Spleen cells were diluted to 3×10^6/ml in RPMI-1640 with 2 mM L-glutamine, 80 ìg/ml gentamycin and 20% inactivated fetal calf serum. 0.5 ìg/ml Concanavalin A (Con A, Sigma, St. Louis, Mo.) was used to stimulate thymic cell proliferation. For spleen cell proliferation, 0.5 ìg/ml Con A, 10 ìg/ml lipopolysaccharide (Sigma, St. Louis, Mo.), and 50 ìg/ml tuberculin purified protein derivative (PPD) were utilized. The assay was carried out in 96-well plates and cell cultures were incubated for 72 hours, or 96 hours if tuberculin was used, at 37° C. in humidified 5% CO2, then pulsed with 5 ìl Ci/ml ^3H-thymidine overnight (approximately 16 h) and harvested on filters using a semi-automated harvester (Titertek™, Flow Laboratories, Norway). Filters were dried and proliferation calculated by ^3H-thymidine incorporation by counting samples in a liquid scintillation counter (LKB 1217 Racketa, Wallace, Sweden). Data was expressed in impulses per minute.

The test system of the next experiment is peritoneal macrophages. As to the kind of experiment: Phagocytosis and killing of Saccharomyces cerevisiae by peritoneal macrophages of treated infected mice. Type of experiment: in vivo. On the procedure:
In order to study phagocytosis, peritoneal macrophages were plated at a concentration of 10^6 cells per Petri dish and media including 10^7 Saccharomyces cerevisiae cells, opsonized by mice serum was added. Results were evaluated using the Mann-Whitney test. Phagocytic activity was calculated after determination of percentage of macrophages involved in phagocytes. The phagocytic index was determined by calculating the average number of yeast phagocytosed per one cell. Killing activity was resolved by the number of yeast digested by macrophages after 1.5 h of incubation. Finally, the killing index was determined as follows: [formula]

Another experiment concerns IL-2. As to the kind of experiment: IL-2 production by Con A stimulated spleen cells (CTLL-2 assay). To be noted: 4 days after therapy; Group 7 (0.1 ìg/kg ip) compared to Group 3 (isoniazid control); Con A stimulated spleen cells. Type of experiment: in vivo, mice. The method, then: In RPMI-1640, spleen cells were diluted to a concentration of 10^7/ml with 10% fetal calf serum, 2 mM L-glutamine and 80 ìg/ml gentamycin. A 100 ìl cell suspension was added to each well of a 96-well culture plate and cytokine production was induced by Con A at a final concentration of 2.5 ìg/ml. A control well included RPMI-1640. For 24 hours, cells were incubated at 37° C. and humidified in 5% CO2. Following incubation, […] of supernatant was removed from each well and stored at −70° C.
In order to determine the IL-2 concentration in cell culture supernatants, the CTLL-2 IL-2 dependent cell line was used. CTLL-IL-2 cells were washed twice in RPMI-1640 and counted with a Goriaev hemocytometer. Supernatants were diluted in 96-well culture plates at dilutions of 1:5, 1:15, 1:45 and 1:135 in a volume of 100 il. IL-2 standard dilutions were also prepared. Cells were diluted to 2×10^5/ml in RPMI-1640 with 10% inactivated fetal calf serum, 2 mM L-glutamine, 80 ìg/ml gentamycin. The 100 ìl suspension was added to each well of the culture plate and incubated for 48 h at 37° C. in 5% CO2 humidity. Ten ìl of 5 i Ci/ml ^3H-thymidine was added to each well 16 h before the end of incubation. Following incubation, the cells were harvested on filters through the use of a semi-automated harvester and samples were counted in a liquid scintillation counter.

Setting [1] is: 24 days after end of therapy, Group 7 (0.1 ìg/kg ip) versus Group 3 (isoniazid control).

As to `NNC(=O)c1ccncc1` [isoniazid, isonicotinic acid hydrazide, reference compound], in the experiment with M. bovis 8 (setting [1]), the “growth of M bovis cultured from spleens” value was 275±14.1 CFU, the lung weight index stood at 1.07±0.23 and the spleen weight index came to 1.94±0.31. Further, in the experiment with M. bovis 8 (24 days after end of therapy, Group 7 (SCV-07 0.1 ìg/kg ip, 5 injections, with isoniazid) versus Group 3 (isoniazid control)), the “increase in body weight” value is reported as 20.7%. Moreover, the “lung damage index, difference to untreated mice (Group 2)” value in the experiment with M. bovis 8 (isoniazid alone (Group 3), 10 mg/kg subcutaneous, Day 28 of infection) is listed as “no significant difference”. In the experiment with spleen cells, the “spleen cell proliferative response (Con A and LPS)” value is reported as “remained low”. Besides, the phagocytic killing in the experiment with peritoneal macrophages (24 days after treatment, Group 3 (isoniazid), 178.0 in uninfected mice, p=0.05) is 62.0 U. For the same molecule, the Phagocytosis result with peritoneal macrophages (24 days after treatment, isoniazid treatment group) is “returned to the level seen in uninfected mice”. For the same molecule, in the experiment with peritoneal macrophages (after 4 days, Group 7 (SCV-07 0.1 ìg/kg ip) compared to Group 3 (isoniazid control), p≦0.05, 64.2% in uninfected mice), the phagocytic activity is listed as 19.4%. In the experiment with peritoneal macrophages (after 4 days, SCV-07 versus control, p≦0.05), the killing is listed as 196.4. Further, the phagocytic activity in the experiment on peritoneal macrophages (after 17 days, Group 6 (1.0 ìg/kg ip, 10 injections) versus Group 3 (isoniazid control)) is on record as 49.8%. This molecule also yielded a phagocytic index in the experiment on peritoneal macrophages (after 17 days, Group 6 (1.0 ìg/kg ip, 10 injections) versus Group 3, p=0.05) of 4.91 U. Further, the IL-2 production in the experiment with IL-2 was 16.6±2.6 U/ml.
